Results taken from patent US9630925B2, “HSP90 inhibitor and preparation method and use thereof” (priority 2010, dated 2017).
One block for each compound: values may come before it.

Columns and labels:
[1] = system: Herpes Simplex Virus Type II Strain 333 (HSV-2 333); assay: Anti-HSV-2 activity by CPE method; assay type: cell-based; conditions: HSV-2, Vero, 48 hours
Excerpt: (§1) In this example, the Vero cell line (ATCC CCL81, purchased from ATCC, US) was used as the normal cell. […] The cytopathic effect (CPE) was then observed under an optical microscope.

[2] = system: Herpes Simplex Virus Type I Strain F (HSV-1 F); assay: Plaque reduction assay (PRA), HSV-1; assay type: cell-based; conditions: for IC50: Human alphaherpesvirus 1, plaque reduction, Vero, n = 3, read-out: Antiviral activity HSV-1 IC50
Procedure: (§2) In this example, the Vero cell line (ATCC CCL81, purchased from ATCC, US) was used as the normal cell.
(§3) The Vero cells were cultured to a monolayer on 24 well plates. […] The virus solutions were suck out and discarded. […] After observing for 72 hours, they were fixed for 30 minutes with 10% formaldehyde, stained for 30 minutes with 1% crystal violet, rinsed with water, and dried. The plaques were counted with reference to Nitta's method, and the plaque inhibition rate was calculated.
(§4) A curve graph was plotted with the logarithmic value of the drug concentration as the horizontal coordinate, and the plaque inhibition rate as the vertical coordinate.

[3] = system: Herpes Simplex Virus Type II Strain 333 (HSV-2 333); assay: Plaque reduction assay (PRA), HSV-2; assay type: cell-based; conditions: for IC50: Human alphaherpesvirus 2, plaque reduction, Vero, n = 3, read-out: Antiviral activity HSV-2 IC50
Procedure: as §2, §3, §4

[4] = system: Vero cells; assay: in vitro
Procedure: (§5) The cells were cultured overnight, and the culture solutions were discarded. […] Then the Vero cells were incubated for an additional 48 hours. The ATP levels in the Vero cells and the AK release quantity in the supernatant of the culture solutions were determined using kits from Lonza, US (Vialight HS kit and Toxilight bioassay kit). The maximum non-toxic concentration of the drug on the Vero cells within 48 hours were then assayed. The positive drug 17-AAG was used as control in the experiment (starting from 10 μM, double dilution of 6 concentrations).

[5] = system: human chronic myeloid leukemia cells (K562); assay: MTT proliferation inhibition, K562
Procedure: (§6) In this example, the positive control was 17-AAG (purchased from Alexis Biochemicals Company, US); and the applied cell lines of K562, Hela, A375, Mcf-7, etc., were all purchased from ATCC, Manassas, Va., USA.
Quadruplicate wells were set for each of the concentrations, and the experimental groups, the solvent control groups, and the blank groups were set for the experiments. The 96 well plates were placed in an incubator at 37° C., 5% CO2, and incubated for 48 hours.
(3) With reference to the MTT method established by Mosmann, 20 μL, MTT solution was added to each of the wells and incubation continued for 4 hours. The solution in each well was sucked out and discarded carefully. Then 100 mL DMSO was added to each of the wells, and the mixture shaken for 15 minutes on a shaker in the dark. The colorimetric measurements were carried out on a microplate reader (with a wavelength of 570 nm, and a reference wavelength of 630 nm), and the absorbances (A value) were determined. The half toxic concentration (IC50) of the drug was calculated.

[6] = system: human cervical carcinoma cells (Hela); assay: MTT proliferation inhibition, Hela
Excerpt: as §6
(§7) (2) Human cervical carcinoma cells (Hela), human malignant melanoma cells (A375), human laryngeal epithelial cancer cells (Hep-2), and human breast cancer cells (MCF-7) in logarithmic growth phase were taken, and regulated into single cell suspensions having a cell concentration of 2×10^5/mL with a DMEM culture medium containing 10% fetal bovine serum (purchased from GIBCO BRL, US). Then the single cell suspensions were seeded into 96 well plates, 100 μL/well. The cells were cultured overnight, making them attach to the wall. […] Quadruplicate wells were set for each of the concentrations, and the experimental groups, the solvent control groups, and the blank groups were set for the experiments. The 96 well plates were placed in an incubator at 37° C., 5% CO2, and incubated for 48 hours.
(§8) (3) With reference to the MTT method established by Mosmann, 20 μL, MTT solution was added to each of the wells and incubation continued for 4 hours. […] The colorimetric measurements were carried out on a microplate reader (with a wavelength of 570 nm, and a reference wavelength of 630 nm), and the absorbances (A value) were determined. The half toxic concentration (IC50) of the drug was calculated.

[7] = system: human malignant melanoma cells (A375); assay: MTT proliferation inhibition, A375
Excerpt: as §6, §7, §8

[8] = system: human breast cancer cells (MCF-7); assay: MTT proliferation inhibition, MCF-7
Excerpt: as §6, §7, §8

[9] = system: human laryngeal epithelial cancer cells (Hep-2); assay: MTT proliferation inhibition, Hep-2
Excerpt: as §6, §7, §8

[10] = system: Hsp90; conditions: background statement; cited from earlier work
[11] = in vitro; conditions: African green monkey
Procedure: as §5

[12] = system: Herpes Simplex Virus Type 1 Strain F (HSV-1 F); assay: Anti-HSV-1 activity by CPE method; assay type: cell-based; conditions: HSV-1, Vero, 48 hours
Excerpt: as §1

IC50 [2]: 4.16 ± 1.02 µM | IC50 [3]: 3.32 ± 0.44 µM
SMILES: Nc1nc2c(ncn2COCCO)c(=O)[nH]1 [ACV, Acyclovir, reference compound]
CPE ([1]; 0.16 μM): ++ (26%-50% ++) | CPE ([1]; 0.31 μM): ++ (26%-50% ++)

SMILES: C=CCNC1=C2C[C@@H](C)C[C@H](OC)[C@H](O)[C@@H](C)/C=C(\C)[C@H](OC(N)=O)[C@@H](OC)/C=C\C=C(/C)C(=O)NC(=CC1=O)C2=O [Compound 17-AAG, 17-allylaminogeldanamycin, reference compound]
maximum non-toxic concentration ([4]; Vero cells, 48 hours): 0.63 µM | IC50 ([5]; K562, MTT, 48 hours): 2.43 ± 0.68 µM | IC50 ([6]; Hela, MTT, 48 hours): 5.42 ± 0.18 µM | IC50 ([7]; A375, MTT, 48 hours): 3.13 ± 0.15 µM | IC50 ([8]; MCF-7, MTT, 48 hours): 3.24 ± 0.15 µM | IC50 ([9]; Hep-2, MTT, 48 hours): 2.33 ± 0.3 µM

SMILES: CO[C@@H]1[C@@H](OC(N)=O)[C@@H](O)[C@H](Oc2ccc3c(O)c(NC(=O)c4ccc(O)c(CC=C(C)C)c4)c(=O)oc3c2C)OC1(C)C [Novobiocin]
concentration used as an inhibitor of Hsp90 [10]: up to 700 μM

SMILES: CC(=O)OC(CC(=O)OC1CCC(Nc2cc(-n3nc(C)c4c3CC(C)(C)CC4=O)ccc2C(N)=O)CC1)C[N+](C)(C)C.[Cl-] (stereo not shown) [Xbj-B16-1, 2-(4-(3-acetylcarnitineacyloxy)cyclohexylamino)-4-(1-(3,6,6-trimethyl-4-oxy-4,5,6,7-terahydroindazole))benzamide]
CC50 at 48 h [11]: 47.8 ± 3.53 µM | Toxity TC0 (the maximum non-toxic concentration) ([4]; African green monkey, 48 h): 12.5 µM | maximum non-toxic concentration ([4]; African green monkey, 48 h): 12.5 µM | CPE ([12]; 0.39 μM): ++++ (76%-100% ++++) | CPE ([12]; 0.78 μM): ++++ (76%-100% ++++) | CPE ([12]; 1.56 μM): ++++ (76%-100% ++++) | CPE ([12]; 3.13 μM): +++ (51%-75% +++) | CPE ([12]; 6.25 μM): ++ (26%-50% ++) | CPE ([1]; 0.39 μM): ++++ (76%-100% ++++) | CPE ([1]; 0.78 μM): ++++ (76%-100% ++++) | CPE ([1]; 1.56 μM): ++++ (76%-100% ++++) | CPE ([1]; 3.13 μM): +++ (51%-75% +++) | CPE ([1]; 6.25 μM): +++ (51%-75% +++) | CPE ([1]; 12.5 μM): + (0-25% +) | IC50 [2]: 2.96 ± 0.56 µM | HSV-1 TI (therapeutic index, TC50/IC50) ([2]; TC50/IC50): 16.14 | IC50 [3]: 3.2 ± 0.33 µM | HSV-2 TI (therapeutic index, TC50/IC50) ([3]; TC50/IC50): 14.93 | IC50 ([5]; Homo sapiens, K562, 48 h): 8.31 ± 1.78 µM | IC50 ([6]; Homo sapiens, HeLa, 48 h): 10.3 ± 2.48 µM | IC50 ([7]; Homo sapiens, A-375, 48 h): 7.23 ± 1.31 µM | IC50 ([8]; Homo sapiens, MCF7, 48 h): 9.53 ± 2.03 µM | IC50 ([9]; Homo sapiens, HEp-2, 48 h): 6.37 ± 2.13 µM
